Measurements from patent US4892885A, “Esters of (triarylphosphoranylidene)carbamic acid for effecting diuresis” (American Cyanamid Company, priority 1988, dated 1990).

Legend:
[1] = system: Spontaneously Hypertensive Rats; assay: Diuretic activity in spontaneously hypertensive rats (0-5 hour urine); assay type: in vivo, Male spontaneously hypertensive rats (SHR) of Okamoto strain; conditions: 100 mg/kg by gavage, sodium chloride loading, SHR
Description: The diuretic activity of the compounds of this invention was also determined according to the method of Chan, P. S. and Poorvin, D., "Sequential method for combined screening antihypertensive and diuretic agents in the same spontaneously hypertensive rat." Clinical and Experimental Hypertension, 1(6), 817-830 (1979). Male spontaneously hypertensive rats (SHR) of Okamoto strain, 16 weeks old, Taconic Farms Inc. were used in the test. These rats were kept on Purina laboratory chow and tap water ad libitum for 8 weeks before use. One male adult rat (about 300 g) was dosed by gavage with a test compound at 100 mg/kg together with 0.9 sodium chloride loading at […] at zero hour. The tese compound was suspended in 3% preboiled starch at 50 mg/ml. The rat was put in a metabolism cage. The 0-5 hour urine was collected and urinary sodium and potassium were determined using a Beckman Astra 4.

[2] = system: plasma renin activity; assay: Inhibition of evoked (drug-induced) increase of plasma renin activity (PRA) in conscious rats; assay type: in vivo; conditions: 25 mg/kg oral, 30 minutes prior to hydrochlorothiazide (10 mg/kg) + ACE inhibitor (1 mg/kg) provocative treatment; male Wistar rats; number of rats in parentheses
Description: Inhibition of evoked increase of plasma renin activity was determined by the following test.
Compounds were tested for their ability to prevent drug-induced elevation of plasma renin activity (PRA) in conscious, male Wistar rats (180-200 g, Charles River Lab.). PRA elevation was induced by a combined oral provocative treatment (C) of hydrochlorothiazide (10 mg/kg) and 1-(3-benzoyl-3-mercapto-2-methylpropionyl)-L-proline, acetate (U.S. Pat. No. 4,226,775) (one mg/kg), prepared by compounding in a mortar and pestle with preboiled 3% starch suspension. This treatment provided the daily maximum PRA. The daily minimum PRA was obtained from rats given oral starch suspension (S) alone. The magnitude of drug effect on PRA elevation was ascertained from rats pretreated orally with test agent (D), at the indicated doeses, 30 minutes prior to administration of provocative treatment (C). The test agent was also compounded in preboiled 3% starch suspension. The dose volumes for both pretreatment and provocative treatment were 2 ml/kg. One hour after provocative treatment the rats were sacrificed by decapitation and the first 3 seconds of blood collected in two chilled vacutainer tubes containing […] of 150 mg/ml tripotassium EDTA. […]
PRA is calculated as follows: PRA ([…])=PRA 37° C.-PRA 4° C.
Percent inhibition of PRA elevation is calculated as follows: [formula]

SMILES | Potassium (urinary) [1] | Sodium (urinary) [1] | Volume (urine) [1] | Percent Inhibition of Plasma Renin Elevation, Average % Inhibition (No. of rats) [2]
CCOC(=O)N=P(c1ccccc1)(c1ccccc1)c1ccccc1CN1CCCCC1 [[Diphenyl[2-(1-piperidinylmethyl)phenyl]phosphoranylidene]carbamic acid, ethyl ester] | 0.37 MEQ/5 Hours | 1.92 MEQ/5 Hours | 18.8 mL | 
CCOC(=O)N=P(c1ccccc1)(c1ccccc1)c1ccccc1CN1CCCC1 [[Diphenyl[2-(1-pyrrolidinylmethyl)phenyl]phosphoranylidene]carbamic acid, ethyl ester] | 0.56 MEQ/5 Hours | 1.36 MEQ/5 Hours | 12.0 mL | 
COC(=O)N=P(c1ccccc1)(c1ccccc1)c1ccccc1CN(C)C [[[2-[(Dimethylamino)methyl]phenyl]diphenylphosphoranylidene]carbamic acid, methyl ester] | 0.83 MEQ/5 Hours | 1.62 MEQ/5 Hours | 19.5 mL | 77%
CCOC(=O)N=P(c1ccccc1)(c1ccccc1)c1ccccc1CN(C)C [[[2-[(Dimethylamino)methyl]phenyl]diphenylphosphoranylidene]carbamic acid, ethyl ester] | 0.67 MEQ/5 Hours | 1.47 MEQ/5 Hours | 15.5 mL | 16%
CCOC(=O)N=P(c1ccccc1)(c1ccccc1)c1ccccc1CNC.Cl [[[2-[(Methylamino)methyl]phenyl]diphenylphosphoranylidene]carbamic acid, ethyl ester, monohydrochloride] | 0.51 MEQ/5 Hours | 1.66 MEQ/5 Hours | 17.5 mL | 
CCCN(CCC)Cc1ccccc1P(=NC(=O)OCC)(c1ccccc1)c1ccccc1 [[[2-[(Dipropylamino)methyl]phenyl]diphenylphosphoranylidene]carbamic acid, ethyl ester] | 0.40 MEQ/5 Hours | 1.41 MEQ/5 Hours | 22.0 mL | 
CCOC(=O)N=P(c1ccccc1)(c1ccccc1)c1ccccc1CN(CC)CC [[[[2-(Diethylamino)methyl]phenyl]diphenylphosphoranylidene]carbamic acid, ethyl ester] | 0.48 MEQ/5 Hours | 2.46 MEQ/5 Hours | 23.3 mL | 
